Measurements reported in PubChem BioAssay AID330 (DTP/NCI, 2004).
Several values for one entry are separate records, joined by “and”; a condition that tells them apart may be missing. Equal entries are not always repeated. Inconclusive results and toxic doses are left out. The calls were made as follows: active = survival T/C of 150% or more; inactive = T/C below 125% in these data.

Tested on: P388 leukemia ip, CD2F1 mice, survival T/C
Assay: NCI In Vivo Anticancer Drug Screen. Data for tumor model P388 Leukemia (intraperitoneal) in CD2F1 (CDF1) mice
Conditions: endpoint: median survival time, higher = longer survival
Outline: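 Mice carrying the transplanted tumor received test compound or vehicle. Survival was recorded in each group, and the value is the treated-group measurement divided by that of the vehicle-treated control group.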

[1] = dose: 60.0 mg/kg/injection, schedule: Q01DX005 (ip), vehicle: saline with Tween-80
[2] = dose: 120.0 mg/kg/injection, schedule: Q01DX005 (ip), vehicle: saline with Tween-80
[3] = dose: 100.0 mg/kg/injection, schedule: Q01DX001 (ip), vehicle: saline with Tween-80
[4] = dose: 200.0 mg/kg/injection, schedule: Q01DX001 (ip), vehicle: saline with Tween-80
[5] = dose: 400.0 mg/kg/injection, schedule: Q01DX001 (ip), vehicle: saline with Tween-80
[6] = dose: 50.0 mg/kg/injection, schedule: Q01DX009 (ip), vehicle: Klucel (hydroxypropylcellulose) (HPC)
[7] = dose: 100.0 mg/kg/injection, schedule: Q01DX009 (ip), vehicle: Klucel (hydroxypropylcellulose) (HPC)
[8] = dose: 60.0 mg/kg/injection, schedule: Q01DX005 (ip), vehicle: Klucel (hydroxypropylcellulose) (HPC)
[9] = dose: 120.0 mg/kg/injection, schedule: Q01DX005 (ip), vehicle: Klucel (hydroxypropylcellulose) (HPC)
[10] = dose: 240.0 mg/kg/injection, schedule: Q01DX005 (ip), vehicle: Klucel (hydroxypropylcellulose) (HPC)
[11] = dose: 50.0 mg/kg/injection, schedule: Q01DX005 (ip), vehicle: saline with Tween-80
[12] = dose: 100.0 mg/kg/injection, schedule: Q01DX005 (ip), vehicle: saline with Tween-80
[13] = dose: 200.0 mg/kg/injection, schedule: Q01DX005 (ip), vehicle: saline with Tween-80
[14] = dose: 25.0 mg/kg/injection, schedule: Q01DX009 (ip), vehicle: saline
[15] = dose: 200.0 mg/kg/injection, schedule: Q01DX009 (ip), vehicle: Klucel (hydroxypropylcellulose) (HPC)

Measured: T/C

CCCCCCCCCCCCCCCCOCC(COP(=O)([O-])OCC[N+](C)(C)C)OCCCCCCCCCCCCCCCC (configuration not stated)
inactive: [1] 97 % of control | [2] 100 % of control | dose: 240.0 mg/kg/injection, schedule: Q01DX005 (ip), vehicle: saline with Tween-80 104 % of control

CCOCCN(CCOCC)c1ncnc2nc[nH]c12
inactive: dose: 50.0 mg/kg/injection, schedule: Q01DX005 (ip), vehicle: saline 102 % of control | dose: 100.0 mg/kg/injection, schedule: Q01DX005 (ip), vehicle: saline 102 % of control | dose: 200.0 mg/kg/injection, schedule: Q01DX005 (ip), vehicle: saline 98 % of control

O=c1c2ccccc2ncn1-c1ccc(O)c(CN(CCCl)CCCl)c1
inactive: [3] 101 % of control | [4] 97 % of control | [5] 93 % of control

Nc1nc2ncc(CCNc3ccc(C(=O)NC(CCC(=O)O)C(=O)O)cc3)nc2c(=O)[nH]1 (configuration not stated)
inactive: dose: 12.5 mg/kg/injection, schedule: Q01DX009 (ip), vehicle: Klucel (hydroxypropylcellulose) (HPC) 98 % of control | dose: 25.0 mg/kg/injection, schedule: Q01DX009 (ip), vehicle: Klucel (hydroxypropylcellulose) (HPC) 103 % of control | [6] 107 % of control | [7] 93 % of control

Cc1cc(C)c2c(=O)n(-c3ccccc3C)c(=S)n(-c3ccccc3C)c2n1
inactive: [1] 100 % of control | [2] 86 % of control

Cc1[nH]cnc1CSCCN=C(N)n1[nH]cc(C)c1=O
inactive: [8] 111 % of control | [9] 100 % of control | [10] 99 % of control

CC(=O)OC(C)C(O)C(O)C(/C=C/C1CC=CC(=O)O1)OC(C)=O (configuration not stated)
inactive: dose: 8.25 mg/kg/injection, schedule: Q01DX005 (ip), vehicle: Klucel (hydroxypropylcellulose) (HPC) 108 % of control | dose: 16.5 mg/kg/injection, schedule: Q01DX005 (ip), vehicle: Klucel (hydroxypropylcellulose) (HPC) 104 % of control | dose: 33.0 mg/kg/injection, schedule: Q01DX005 (ip), vehicle: Klucel (hydroxypropylcellulose) (HPC) 104 % of control | dose: 66.0 mg/kg/injection, schedule: Q01DX005 (ip), vehicle: Klucel (hydroxypropylcellulose) (HPC) 95 % of control

Cc1ccc(NC(=O)CCC(=O)C(C)C(=O)c2ccccc2)c(C)c1 (configuration not stated)
inactive: [11] 99 % of control | [12] 97 % of control | [13] 97 % of control

CN(C)c1ccc(-c2nnc3c(c(=O)n(C)c(=O)n3C)[n+]2[O-])cc1
inactive: dose: 25.0 mg/kg/injection, schedule: Q01DX001 (ip), vehicle: Klucel (hydroxypropylcellulose) (HPC) 102 % of control | dose: 50.0 mg/kg/injection, schedule: Q01DX001 (ip), vehicle: Klucel (hydroxypropylcellulose) (HPC) 93 % of control | dose: 100.0 mg/kg/injection, schedule: Q01DX001 (ip), vehicle: Klucel (hydroxypropylcellulose) (HPC) 100 % of control and 94 % of control

OC1(c2cccc(Cl)c2)C2=NCCCN2c2ccccc21 (configuration not stated)
inactive: dose: 6.25 mg/kg/injection, schedule: Q01DX009 (ip), vehicle: saline with Tween-80 95 % of control | dose: 12.5 mg/kg/injection, schedule: Q01DX009 (ip), vehicle: saline with Tween-80 91 % of control

N#CNC(=O)c1ccc(C(=O)NC#N)cc1
inactive: [11] 98 % of control | [12] 98 % of control | [13] 90 % of control

c1ccc(Cn2cc(CCc3ccncc3)c3ccccc32)cc1
inactive: [14] 100 % of control | dose: 50.0 mg/kg/injection, schedule: Q01DX009 (ip), vehicle: saline 100 % of control | dose: 100.0 mg/kg/injection, schedule: Q01DX009 (ip), vehicle: saline 100 % of control

O=c1[nH]c2cc([N+](=O)[O-])ccc2nc1/C=C(\O)c1ccc([N+](=O)[O-])cc1
inactive: dose: 60.0 mg/kg/injection, schedule: Q01DX005 (ip), vehicle: Klucel + Tween-80 87 % of control | dose: 120.0 mg/kg/injection, schedule: Q01DX005 (ip), vehicle: Klucel + Tween-80 86 % of control | dose: 240.0 mg/kg/injection, schedule: Q01DX005 (ip), vehicle: Klucel + Tween-80 90 % of control

Nc1ncnc2c1ncn2C1OC(COP(=O)(O)OP(=O)(O)OP(=O)(O)O)C(OP(=O)(O)OP(=O)(O)OP(=O)(O)O)C1O (configuration not stated) (tested in a mixture with another compound)
inactive: [8] 93 % of control | [9] 103 % of control | [10] 101 % of control

C[Si](C)(C)ONC(=O)c1ccccc1
inactive: dose: 6.25 mg/kg/injection, schedule: Q01DX009 (ip), vehicle: distilled water + Tween-80 100 % of control | dose: 12.5 mg/kg/injection, schedule: Q01DX009 (ip), vehicle: distilled water + Tween-80 92 % of control | dose: 25.0 mg/kg/injection, schedule: Q01DX009 (ip), vehicle: distilled water + Tween-80 109 % of control | dose: 50.0 mg/kg/injection, schedule: Q01DX009 (ip), vehicle: distilled water + Tween-80 102 % of control | dose: 100.0 mg/kg/injection, schedule: Q01DX009 (ip), vehicle: distilled water + Tween-80 99 % of control | dose: 200.0 mg/kg/injection, schedule: Q01DX009 (ip), vehicle: distilled water + Tween-80 105 % of control

O=S1(=O)CCC2C1C1(Cl)C(Cl)=C(Cl)C2(Cl)C1(Cl)Cl (configuration not stated)
inactive: dose: 6.25 mg/kg/injection, schedule: Q01DX009 (ip), vehicle: saline 100 % of control | dose: 12.5 mg/kg/injection, schedule: Q01DX009 (ip), vehicle: saline 100 % of control | [14] 100 % of control

CCOC(=O)NC(=S)c1cccn1C
inactive: dose: 50.0 mg/kg/injection, schedule: Q01DX005 (ip), vehicle: Klucel (hydroxypropylcellulose) (HPC) 98 % of control | dose: 100.0 mg/kg/injection, schedule: Q01DX005 (ip), vehicle: Klucel (hydroxypropylcellulose) (HPC) 103 % of control | dose: 200.0 mg/kg/injection, schedule: Q01DX005 (ip), vehicle: Klucel (hydroxypropylcellulose) (HPC) 105 % of control

NC1=C(c2cccc(Cl)c2)C(=O)CC12C=CC(=O)C=C2
inactive: [6] 100 % of control | [7] 104 % of control | [15] 102 % of control

Cc1nnc(C)s1
inactive: [6] 102 % of control and 106 % of control and 98 % of control | [7] 114 % of control and 96 % of control and 97 % of control | [15] 101 % of control and 106 % of control | dose: 600.0 mg/kg/injection, schedule: Q01DX009 (ip), vehicle: Klucel (hydroxypropylcellulose) (HPC) 106 % of control

CC(=O)Nc1ccc(S(=O)(=O)N/N=C\c2cc([N+](=O)[O-])ccc2O)cc1
inactive: [11] 103 % of control | [12] 101 % of control | [13] 93 % of control

CC12CCC3(CO3)CC1CCC1C2CCC2(C)C1CCC21CO1 (configuration not stated)
inactive: [3] 102 % of control | [4] 99 % of control | [5] 88 % of control

CCCCOP(O)(=S)OCCCC.[Y]
inactive: dose: 25.0 mg/kg/injection, schedule: Q01DX009 (ip), vehicle: saline + alcohol 98 % of control | dose: 50.0 mg/kg/injection, schedule: Q01DX009 (ip), vehicle: saline + alcohol 99 % of control | dose: 100.0 mg/kg/injection, schedule: Q01DX009 (ip), vehicle: saline + alcohol 98 % of control | dose: 100.0 mg/kg/injection, schedule: Q04DX002 (ip), vehicle: saline with Tween-80 102 % of control | dose: 200.0 mg/kg/injection, schedule: Q01DX009 (ip), vehicle: saline + alcohol 91 % of control | dose: 200.0 mg/kg/injection, schedule: Q04DX002 (ip), vehicle: saline with Tween-80 96 % of control | dose: 400.0 mg/kg/injection, schedule: Q04DX002 (ip), vehicle: saline with Tween-80 96 % of control

Cc1ccc(NC2=NCCS2)cc1Cl
inactive: [6] 110 % of control | [7] 115 % of control | [15] 89 % of control
